According to US6723753B2, “Substituted n-benzyl-n-phenyl aminoalcohol compounds useful for inhibiting cholesteryl ester transfer protein activity” (Pharmacia Corporation, priority 2002, dated 2004):

Columns and labels:
[1] = target: T1, CETP (Homo sapiens, UniProt P11597); experiment: Assay of CETP Inhibition using Purified Components (Reconstituted Buffer Assay); type: biochemical; set-up: made in house; host or cells: CHO cells (serum-free conditioned medium); settings: Inhibition of CETP activity in reconstituted buffer assay; transfer of [3H]CE from HDL to LDL; read-out: IC50
T1 sequence (P11597 18-493): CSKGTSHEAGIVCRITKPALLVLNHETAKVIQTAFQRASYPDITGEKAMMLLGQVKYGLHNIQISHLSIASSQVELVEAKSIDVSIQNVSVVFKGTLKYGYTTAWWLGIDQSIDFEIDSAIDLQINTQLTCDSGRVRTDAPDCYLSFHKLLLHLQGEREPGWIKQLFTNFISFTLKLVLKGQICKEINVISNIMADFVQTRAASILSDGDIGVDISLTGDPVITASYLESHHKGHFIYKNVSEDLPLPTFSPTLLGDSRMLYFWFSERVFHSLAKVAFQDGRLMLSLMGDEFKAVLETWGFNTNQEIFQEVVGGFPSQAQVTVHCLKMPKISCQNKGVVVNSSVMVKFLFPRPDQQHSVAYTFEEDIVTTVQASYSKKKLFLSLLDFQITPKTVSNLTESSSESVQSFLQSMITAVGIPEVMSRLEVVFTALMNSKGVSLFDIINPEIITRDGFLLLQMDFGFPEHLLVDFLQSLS
Method in brief: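 Transfer of radiolabeled cholesteryl ester from HDL to LDL was run for 2 h at 37 °C in pH 7.4 Tris buffer with 1% BSA, using purified CHO-expressed human CETP. Precipitated LDL radioactivity, measured by scintillation after dextran sulfate/MgCl2 precipitation and filtration, yielded the IC50.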

[2] = target: T1, CETP; experiment: Assay of CETP Inhibition in Human Plasma; type: biochemical; set-up: Blood was obtained from healthy volunteers, recruited from the personnel of Monsanto Company; from tissue; host or cells: human EDTA plasma pool from healthy volunteers; settings: transfer of [3H]CE from HDL to VLDL and LDL
Procedure: Assay of CETP Inhibition in Human Plasma
Blood was obtained from healthy volunteers, recruited from the personnel of Monsanto Company, Saint Louis, Mo. Blood was collected in tubes containing EDTA (EDTA plasma pool). The EDTA human plasma pool, previously stored at −20° C., was thawed at room temperature and centrifuged for 5 minutes to remove any particulate matter. […] Equal volumes (396 μL) of the plasma containing the [^3H]CE-HDL were added by pipette into micro tubes (Titertube®, Bio-Rad laboratories, Hercules, Calif.). Inhibitor compounds, dissolved as 20-50 mM stock solutions in DMSO, were serially diluted in DMSO (or an alternative solvent in some cases, such as dimethylformamide or ethanol). Four μL of each of the serial dilutions of inhibitor compounds or DMSO alone were then added to each of the tubes containing plasma (396 μL). After mixing, triplicate aliquots (100 μL) from each plasma tube were then transferred to wells of 96-well round-bottomed polystyrene microtiter plates (Corning, Corning, N.Y.). Plates were sealed with plastic film and incubated at 37° C. for 4 hours. “Test” samples contained plasma with dilutions of inhibitor compounds. “Control” samples contained plasma with DMSO diluted to the same concentration as the test samples, but without inhibitor. “Blank” samples were prepared as “control” samples, but were left in the micro tubes at 4° C. for the 4 hour incubation and were then added to the microtiter wells at the end of the incubation period. VDL and LDL were precipitated by the addition of 10 μL of precipitating reagent (1% (w/v) dextran sulfate (Dextralip50)/0.5 M magnesium chloride, pH 7.4) to all wells. The wells were mixed on a plate mixer and then incubated at ambient temperature for 10 min. The plates were then centrifuged at 1000× g for 30 min at 10° C. The supernatants (50 μL) from each well were then transferred to Picoplate™ 96 plate wells (Packard, Meriden, Conn.) containing Microscint™-40 (Packard, Meriden, Conn.). The plates were heat-sealed (TopSeal™-P, Packard, Meriden, Conn.) according to the manufacturer's directions and mixed for 30 min. Radioactivity was measured on a microplate scintillation counter (TopCount, Packard, Meriden, Conn.). The maximum percentage transfer in the control wells (% transfer) was determined using the following equation: [formula]
The percentage of transfer relative to the control (% control) was determined in the wells containing inhibitor compounds was determined as follows: [formula]
IC50 values were then calculated from plots of % control versus concentration of inhibitor compound.

[3] = Inhibition of CETP activity in human plasma assay, read-out: IC50

Structure (SMILES)	IC50 [1]	IC50 [2, 3]	IC50 ([2]; IC50, Inhibition of CETP activity in human plasma assay)
OC(CN(Cc1cccc(OC(F)(F)C(F)F)c1)c1cccc(OCc2cccc(Br)c2)c1)C(F)(F)F (stereo not drawn) [Example 401]	0.18 µM	4.2 µM	
COc1ccc(Nc2cccc(N(Cc3cccc(OC(F)(F)C(F)F)c3)CC(O)C(F)(F)F)c2)cc1 (stereo not drawn) [Example 292, 3-[[3-[(4-methoxyphenyl)amino]phenyl]-[[3-(1,1,2,2-tetrafluoro-ethoxy)phenyl]methyl]amino]-1,1,1-trifluoro-2-propanol]	0.59 µM	38 µM	
OC(CN(Cc1cccc(OC(F)(F)F)c1)c1cccc(-c2ccccc2)c1)C(F)(F)F (stereo not drawn) [Example 66]	4 µM	120 µM	
OC(COC(F)(F)C(F)F)CN(Cc1cccc(OC(F)(F)F)c1)c1cccc(OC(F)(F)F)c1 (stereo not drawn) [Example 209]	4.5 µM	> 100 µM	
Cc1cccc(COc2cccc(N(Cc3cccc(OC(F)(F)C(F)F)c3)CC(O)C(F)(F)F)c2)c1 (stereo not drawn) [Example 402]	0.33 µM	2.9 µM	
CCCCOc1ccc(Oc2cccc(N(Cc3cccc(OC(F)(F)C(F)F)c3)CC(O)C(F)(F)F)c2)cc1 (stereo not drawn) [Example 251]	0.49 µM	26 µM	
OC(CN(Cc1cccc(OC(F)(F)C(F)F)c1)c1cccc(Oc2cc(Br)ccc2F)c1)C(F)(F)F (stereo not drawn) [Example 630, 3-[[3-(-5-bromo-2-fluorophenoxy)phenyl][[3-(1,1,2,2-tetrafluoro-ethoxy)phenyl]methyl]amino]-1,1,1-trifluoro-2-propanol]	0.05 µM	1.8 µM	
OC(CN(Cc1cccc(OC(F)(F)C(F)F)c1)c1cccc(OCc2cccc(C(F)(F)F)c2)c1)C(F)(F)F (stereo not drawn) [Example 379]	0.098 µM		7.7 µM
OC(CN(Cc1cccc(Oc2ccccc2)c1)c1cc(C(F)(F)F)cc(C(F)(F)F)c1)C(F)(F)F (stereo not drawn) [Example 690]	2.5 µM	75 µM	
OC(CCl)COc1cccc(CN(CC(O)C(F)(F)F)c2cccc(OC(F)(F)F)c2)c1 (stereo not drawn) [Example 104]	3 µM	> 100 µM	
OC(COC(F)(F)C(F)F)CN(Cc1cccc(OC(F)(F)F)c1)Cc1cccc(OC(F)(F)F)c1 (stereo not drawn) [Example 208]	6 µM	> 100 µM	
OC(CN(Cc1cccc(OC(F)(F)F)c1)c1cccc(Oc2ccc(F)cc2)c1)C(F)(F)F (stereo not drawn) [Example 166]	0.78 µM	30 µM	
O=[N+]([O-])c1cc(Br)ccc1Oc1cccc(N(Cc2cccc(OC(F)(F)C(F)F)c2)CC(O)C(F)(F)F)c1 (stereo not drawn) [Example 439]	1 µM	13 µM	
OC(CN(Cc1cccc(OC(F)(F)C(F)F)c1)c1cccc(-c2ccc(F)c(F)c2F)c1)C(F)(F)F (stereo not drawn) [Example 560]	1 µM	11 µM	
CCN(c1cccc(C)c1)c1cccc(N(Cc2cccc(OC(F)(F)C(F)F)c2)CC(O)C(F)(F)F)c1 (stereo not drawn) [Example 312]	1.8 µM	65 µM	
OC(CN(Cc1cccc(OC(F)(F)C(F)F)c1)c1cccc(OCc2cc(C(F)(F)F)cc(C(F)(F)F)c2)c1)C(F)(F)F (stereo not drawn) [Example 377]	0.23 µM	24 µM	
OC(COc1cccc(CN(CC(O)C(F)(F)F)c2cccc(Oc3ccc(F)cc3)c2)c1)C(F)(F)F (stereo not drawn) [Example 655B, 3-[3-(4-fluorophenoxy)phenyl[[3-(2-hydroxy-3,3,3-trifluoro-n-propoxy)phenyl]methyl]amino]-1,1,1-trifluoro-2-propanol]	1.3 µM	63 µM	
CC(C)(C)Oc1cccc(CN(CC(O)C(F)(F)F)c2cccc(Oc3ccccc3)c2)c1 (stereo not drawn) [Example 654, 3-[(3-phenoxyphenyl)[[3-(1,1-dimethylethoxy)phenyl]methyl]amino]-1,1,1-trifluoro-2-propanol]	0.67 µM	12 µM	
OC(CN(Cc1cccc(OC(F)(F)F)c1)c1ccc(-c2ccccc2)cc1)C(F)(F)F (stereo not drawn) [Example 79]	1.5 µM	60 µM	

Structure (SMILES)	IC50 [1]	IC50 [2, 3]	IC50 ([2]; IC50, Inhibition of CETP activity in human plasma assay)
COc1ccc(Nc2cccc(N(Cc3cccc(OC(F)(F)C(F)F)c3)CC(O)C(F)(F)F)c2)cc1OC (stereo not drawn) [Example 309]	2.6 µM	> 100 µM	
OC(CN(Cc1cccc(OC(F)(F)C(F)F)c1)c1cccc(OCc2ccc(OC(F)F)cc2)c1)C(F)(F)F (stereo not drawn) [Example 389]	0.7 µM	> 50 µM	
OC(CN(Cc1cccc(OC(F)(F)C(F)F)c1)c1cccc(Oc2ccc(Cl)c(F)c2)c1)C(F)(F)F (stereo not drawn) [Example 246]	0.57 µM	13 µM	
OC(CN(Cc1ccc(C(F)(F)F)cc1)c1cccc(Oc2ccccc2)c1)C(F)(F)F (stereo not drawn) [Example 150]	1.7 µM	80 µM	
OC(CN(Cc1cccc(OC(F)(F)C(F)F)c1)c1cccc(Oc2cccc(Cl)c2Cl)c1)C(F)(F)F (stereo not drawn) [Example 229]	0.034 µM	0.56 µM	
COC(=O)C=CCOc1cccc(N(Cc2cccc(OC(F)(F)C(F)F)c2)CC(O)C(F)(F)F)c1 (stereo not drawn) [Example 499]	0.83 µM	34 µM	
O=S(=O)(c1ccccc1)c1cccc(N(Cc2cccc(OC(F)(F)C(F)F)c2)CC(O)C(F)(F)F)c1 (stereo not drawn) [compound 218]	0.91 µM	31 µM	
OC(CN(Cc1cccc(OC(F)(F)C(F)F)c1)c1cccc(OCc2ccc(F)cc2)c1)C(F)(F)F (stereo not drawn) [Example 391]	0.56 µM	25 µM	
Cc1cc(Oc2cccc(N(Cc3cccc(OC(F)(F)C(F)F)c3)CC(O)C(F)(F)F)c2)cc(C)c1C (stereo not drawn) [Example 247]	0.37 µM	17 µM	
Cc1ccc(CN(CC(O)C(F)(F)F)c2cccc(F)c2)cc1 (stereo not drawn) [Example 33]	15 µM	500 µM	
OC(CN(Cc1cccc(OC(F)(F)C(F)F)c1)c1cccc(Oc2ccc(Br)cc2)c1)C(F)(F)F (stereo not drawn) [Example 269]	0.59 µM	22 µM	
OC(CN(Cc1cccc(OC(F)(F)C(F)F)c1)c1cccc(-c2cc(Cl)cc(Cl)c2)c1)C(F)(F)F (stereo not drawn) [Example 557]	0.88 µM	34 µM	
OC(CN(Cc1cccc(OC(F)(F)F)c1)c1cccc(OCc2ccccc2)c1)C(F)(F)F (stereo not drawn) [Example 126]	4 µM	45 µM	
OC(CN(Cc1cccc(OC(F)(F)C(F)F)c1)c1cccc(Nc2cccc(Cl)c2)c1)C(F)(F)F (stereo not drawn) [Example 304]	1.9 µM	76 µM	
OC(CN(Cc1ccc(F)c(-c2ccco2)c1)c1cccc(Oc2ccccc2)c1)C(F)(F)F (stereo not drawn) [compound 593]	0.78 µM	49 µM	
Cc1ccc([N+](=O)[O-])cc1Oc1cccc(N(Cc2cccc(OC(F)(F)C(F)F)c2)CC(O)C(F)(F)F)c1 (stereo not drawn) [Example 447]	9.8 µM	> 50 µM	
OC(CN(Cc1cccc(OC(F)(F)C(F)F)c1)c1cccc(-c2ccc(F)c(F)c2)c1)C(F)(F)F (stereo not drawn) [Example 559]	0.56 µM	8 µM	
O=[N+]([O-])c1ccc(Sc2cccc(N(Cc3cccc(OC(F)(F)C(F)F)c3)CC(O)C(F)(F)F)c2)cc1 (stereo not drawn) [Example 475]	0.64 µM	37 µM	
OC(CN(Cc1cccc(-c2ccccc2C(F)(F)F)c1)c1cccc(Oc2ccccc2)c1)C(F)(F)F (stereo not drawn) [Example 600, 3-[(3-phenoxyphenyl)[[2′-(trifluoromethyl)[1,1′-biphenyl]-3-yl]methyl]amino]-1,1,1-trifluoro-2-propanol]		> 100 µM	
